Measured values taken from publication PMC7247683, “Molecular Drug Discovery of Single Ginsenoside Compounds as a Potent Bruton’s Tyrosine Kinase Inhibitor” (International Journal of Molecular Sciences, 2020).
Where two headings read alike, the source gives them in different places.

Experiments:
[1] = Solubility characterization in RPMI medium (absorbance at 540 nm, transparency); type: physicochemical; parameters: key to absorbance at 540 nm increased compared to the control / absorbance at 540 nm decreased compared to the control / absorbance at 540 nm reduced compared to the control: difference in OD at 540 nm vs untreated medium control
Text: In spite of the promising pharmaceutical efficacies of the ginsenoside compounds, the therapeutic potential of ginsenosides is largely restricted by their lowering bioavailability when orally distributed (< 5%) due to their undesirable physicochemical properties, such as low water solubility, low biomembrane permeability, instability in the gastrointestinal fluid, and extensive body metabolism. Depending on the solubility of each candidate substance, the black text under the plate is clearly visible when dissolved well. Since UV/vis absorbance spectra-based turbidimetry has the advantage of being fast and non-destructive in common drug solubility tests, a determination of their turbidity or optical density (OD) in liquid cultures was employed to monitor the water-solubility of the ginsenoside candidates. The λmax of the UV/vis absorbance spectra of the ginsenoside compounds and their Roswell Park Memorial Institute (RPMI) medium were identical at 540 nm, and the difference in OD between the absorbances of the ginsenosides and the media, used only as a control, was plotted (Figure 4). The increased absorbance signals of the PPT and PPD were derived from the increased OD signal of turbidity-based interference by insoluble compounds in the medium. The corresponding UV/vis absorbance results of each candidate substance in the media is discussed as follows:
To determine the concentration of ginsenoside compounds to be treated on the cells, the solubility of each compound in RPMI-1640 medium was evaluated. Specifically, the solubility of each ginsenoside compound was observed by UV/vis absorbance at 540 nm, and the transparency of the medium was measured by the visually observed degree to which the marked black text at the bottom of the plate was visible (transparency of the medium). In addition, the change in absorbance at 540 nm compared to the control was measured by using the medium not treated with the ginsenoside compound as a control.

BTK [2] = molecular target: T1, BTK (Homo sapiens, UniProt Q06187); test: Cell-based phosphorylation ELISA, p-BTK/BTK in Ramos cells; conditions: for BTK inhibitory activity (p-BTK/BTK, ELISA), in words: compared to Ibrutinib or the DMSO-treated group
T1 construct: host or cells: Ramos cells
T1 sequence (Q06187 whole entry): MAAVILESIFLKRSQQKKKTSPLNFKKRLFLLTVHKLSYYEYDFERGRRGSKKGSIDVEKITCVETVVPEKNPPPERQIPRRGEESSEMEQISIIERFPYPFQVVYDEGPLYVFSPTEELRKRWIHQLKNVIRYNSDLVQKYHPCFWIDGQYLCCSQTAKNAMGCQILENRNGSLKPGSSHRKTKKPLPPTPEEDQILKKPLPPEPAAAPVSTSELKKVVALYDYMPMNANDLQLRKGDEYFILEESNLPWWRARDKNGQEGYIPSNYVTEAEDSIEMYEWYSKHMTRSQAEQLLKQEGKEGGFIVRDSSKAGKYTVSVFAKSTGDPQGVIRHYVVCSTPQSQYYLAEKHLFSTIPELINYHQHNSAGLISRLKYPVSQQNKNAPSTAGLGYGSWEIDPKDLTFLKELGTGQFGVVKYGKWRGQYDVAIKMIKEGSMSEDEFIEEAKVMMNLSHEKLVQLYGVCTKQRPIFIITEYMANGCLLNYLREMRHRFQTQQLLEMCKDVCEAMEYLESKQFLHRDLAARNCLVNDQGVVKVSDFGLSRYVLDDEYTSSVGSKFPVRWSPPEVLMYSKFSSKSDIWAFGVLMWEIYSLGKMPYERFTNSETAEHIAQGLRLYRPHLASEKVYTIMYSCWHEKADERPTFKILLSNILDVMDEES
Text: Although BTK is almost constant in cells, the expression level of p-BTK varies depending on the degree of BTK activation and inhibition, and thus the expression level of p-BTK is based on the expression of BTK (p-BTK/BTK).
When BTK is activated or inhibited, the phosphorylation % of BTK is increased or decreased accordingly, which can be confirmed by the amount of phosphorylated BTK in the cell. After treating the ginsenoside compound on the cells, the amount of BTK inhibition of the ginsenoside compound was compared and analyzed by the amount of phosphorylated BTK in the cell. […] The BTK to GAPDH expression ratio was confirmed.
The Ramos cells (~1 × 10^4) were cultured in 96-well cell culture plates. […] Free DMSO was used as a negative control group. […] The expression level of each p-BTK and the expression level of BTK were compared and analyzed using the ratios (p-BTK/GAPDH and BTK/GAPDH) based on the expression level of each […]. Namely, the p-BTK/BTK ratio means the (p-BTK/GAPDH)/(BTK/GAPDH) ratio, which is simply expressed as p-BTK/BTK.

BTK [3] = molecular target: T1, BTK; test: Western blotting, p-BTK/BTK in Ramos cells; type: cell-based; conditions: α-IgM stimulated, stimulation (α-IgM antibody (+), DMSO) group as reference (100%)
Description: The Ramos cells (~3 × 10^6) were famished of serum for 1 h and treated with ginsenosides for 1 h, and then washed with phosphate-buffered saline (Welgene, Korea), followed by stimulation with 1 μg/mL of goat F(ab’)2 anti-human IgM (Southern Biotech, Birmingham, AL, USA) for 10 min on ice. The cells were then lysed in a radioimmunoprecipitation assay (RIPA) buffer (Sigma-Aldrich, St. Louis, MO, USA) and the proteins were separated by SDS-PAGE (Bio-Rad Laboratories, Hercules, CA, USA) and transferred to polyvinylidene fluoride membranes (EMD Millipore, Billerica, MA, USA). The proteins were detected with anti-BTK Y223 (Cell Signaling Technology, Danvers, MA, USA), anti-BTK (53/BTK, Cell Signaling Technology) and anti-glyceraldehyde 3-phosphate dehydrogenase (anti-GAPDH) (Santa Cruz Biotechnology, Santa Cruz, CA, USA) antibodies. The protein signals were monitored by chemiluminescence using Enhanced ChemiLuminescence (ECL) western blotting detection reagent (EMD Millipore), and the scanned blots were quantified using a Multi-Image analyzer (Fujifilm, Japan). The phosphorylation % of each lane was determined using Multi-Gauge software (Fujifilm). The IC50 value was measured using control α-IgM+ set at 100% and control α-IgM− set at 0%.
The Ramos cells (~3 × 10^6) were cultured in 6-well cell culture plates. Both the control and ginsenoside compounds were dissolved in DMSO. For the Western blotting, the α-IgM- groups and α-IgM+ groups in the presence of DMSO were used as the non-stimulation control and stimulation control, respectively, following by the quantitation of the expression ratio of p-BTK, BTK, and β-tubulin. The expression level of each p-BTK and the expression level of BTK were compared and analyzed using the ratios (p-BTK/β-tubulin and BTK/β-tubulin) based on the expression level of each β-tubulin. Namely, the p-BTK/BTK ratio means the (p-BTK/β-tubulin)/(BTK/β-tubulin) ratio, which is simply expressed as p-BTK/BTK.

purified BTK = purified BTK (Homo sapiens, UniProt Q06187); test: FRET-based kinase assay (Z'-LYTE) for BTK inhibition; type: biochemical; conditions: 0.625 μg/mL purified BTK; for BTK inhibitory effect (inhibition %): 25, 50, and 100 μg/mL, depending on the concentration; for IC50: FRET assay
purified BTK, sequence (Q06187 whole entry): as above
Description: For the identification of the BTK inhibitory activity of ginsenoside-derived candidate substances and the screening of them to show pharmacological efficacy, the BTK-inhibitory activity of ginsenoside compounds and their in vitro BTK inhibitory activity was measured as the inhibition rate (inhibition %) of the decreased phosphorylation rate compared to the BTK activity without ginsenoside treatment in a FRET assay.
In order to evaluate the BTK inhibitory activity of the ginsenoside compound, a kinase assay using a Z’-LYTE Kinase Assay Kit from Thermo Fisher Scientific was performed. A fluorescent microplate reader was used to measure the Fluorescence Resonance Energy Transfer (FRET) between coumarin and fluorescein dyes. The assay was optimized for BTK, as described in the manufacturer’s protocol. The BTK activity (%) was evaluated by measuring the ratio of the emission signal (445 nm/520 nm) according to the phosphorylation % of the substrate by BTK.

[4] = solubility-dependent concentration
[5] = read-out: IC50 levels that inhibited BTK activity

Structure (SMILES)	appearance / solubility in the medium [1]	solubility in the medium, overall [1]	absorbance at 540 nm increased compared to the control ([1]; 0.5 mM)	BTK inhibitory activity (p-BTK/BTK, ELISA) (BTK [2]; at low concentrations)	BTK inhibitory activity (p-BTK/BTK, ELISA), in words (BTK [2]; [4])	BTK inhibitory activity (p-BTK/BTK, Western blotting) (BTK [3])	BTK inhibitory effect (inhibition %) (purified BTK)	IC50 (purified BTK; [5])	solubility in the medium, overall ([1]; RPMI medium)	BTK inhibitory activity (p-BTK/BTK, ELISA) (BTK [2]; [4])	also measured
CC(C)=CCCC(C)(O)C1CCC2(C)C1C(O)CC1C3(C)CCC(O)C(C)(C)C3CCC12C (stereo not drawn) [PPD, protopanaxadiol]	turbid	poorly soluble in the medium at higher concentrations	0.442	9.58%	substantial BTK inhibitory activity	about 40%	–	–	–	–	absorbance at 540 nm increased compared to the control ([1]; 0.2 mM): 0.155; absorbance at 540 nm increased compared to the control ([1]; 1 mM): 0.835; absorbance at 540 nm increased compared to the control ([1]; 1.5 mM): 1.153
CC(C)=CCC[C@](C)(O)[C@H]1CC[C@]2(C)[C@@H]1[C@H](O)C[C@@H]1[C@@]3(C)CC[C@H](O)C(C)(C)[C@@H]3[C@@H](O)C[C@]12C [PPT, protopanaxatriol]	intensively turbid	poorly soluble in the medium at higher concentrations	0.309	15.98%	substantial BTK inhibitory activity	about 30%	≥ 70%	136 µM	–	–	absorbance at 540 nm increased compared to the control ([1]; 0.8 mM): 0.508; absorbance at 540 nm increased compared to the control ([1]; 1.7 mM): 1.118
CC(C)=CCCC(C)(OC1OC(COC2OCC(O)C(O)C2O)C(O)C(O)C1O)C1CCC2(C)C1C(O)CC1C3(C)CCC(OC4OC(CO)C(O)C(O)C4OC4OC(CO)C(O)C(O)C4O)C(C)(C)C3CCC12C (stereo not drawn) [Rb2]	–	–	–	–	substantial BTK inhibitory activity	~ 17%	≥ 70%	9.27 µM	soluble in the medium at a high concentration	> 23%	absorbance at 540 nm increased compared to the control ([1]; 0.2 mM in RPMI medium): 0.042; appearance / solubility in the medium ([1]; 0.2 mM in RPMI medium): transparent; absorbance at 540 nm decreased compared to the control ([1]; 0.6 mM in RPMI medium): 0.007; absorbance at 540 nm decreased compared to the control ([1]; 1.0 mM in RPMI medium): 0.006
CC(C)=CCCC(C)(OC1OC(COC2OCC(O)C(O)C2O)C(O)C(O)C1O)C1CCC2(C)C1C(O)CC1C3(C)CCC(OC4OC(CO)C(O)C(O)C4OC4OC(CO)C(O)C(O)C4O)C(C)(C)C3CCC12C (stereo not drawn) [Rb3]	–	–	–	–	substantial BTK inhibitory activity	~ 17%	≥ 70%	51 µM	soluble in the medium at a high concentration	> 23%	absorbance at 540 nm increased compared to the control ([1]; 0.9 mM in RPMI medium): 0.047; appearance / solubility in the medium ([1]; 0.9 mM in RPMI medium): transparent; absorbance at 540 nm reduced compared to the control ([1]; 2.7 mM in RPMI medium): 0.004
CC(C)=CCCC(C)(O)C1CCC2(C)C1C(O)CC1C3(C)CCC(OC4OC(CO)C(O)C(O)C4O)C(C)(C)C3CCC12C (stereo not drawn) [Rh2]	–	–	–	–	–	–	≥ 70%	–	soluble in the medium at a low concentration, while insoluble at a high concentration	–	IC50 (purified BTK; IC50 levels that inhibited BTK activity): 61.1 µM; absorbance at 540 nm increased compared to the control ([1]; 0.4 mM in RPMI medium): 0.037; absorbance at 540 nm increased compared to the control ([1]; 0.6 mM in RPMI medium): 0.111; absorbance at 540 nm increased compared to the control ([1]; 1.2 mM in RPMI medium): 0.271; appearance / solubility in the medium ([1]; 1.2 mM in RPMI medium): slightly soluble
